Experimental data: patent publication US5973228A, “Coniferin beta-glucosidase cDNA for modifying lignin content in plants” (University of British Columbia, priority 1998, dated 1999)

Columns and labels:
[1] = molecular target: T1, E. coli-expressed (recombinant) coniferin beta-glucosidase (CBG) (Pinus contorta, UniProt Q9ZT64); assay: β-glucosidase assay, substrate specificity of E. coli-expressed CBG-cDNA; assay type: biochemical; conditions: substrate hydrolysis relative to coniferin; 100% activity represents 22pKat; 2 mM glucoside substrate, 0.2M MES pH 5.5, 30° C., 30 min
T1 construct: coding region for the mature protein (i.e. excluding the signal peptide) was amplified; Met-Ala-Ser (three non-CBG vector residues) (N); made in house; host or cells: E. coli BL21 (DE3), vector pET21a
T1 sequence (Q9ZT64 24-513): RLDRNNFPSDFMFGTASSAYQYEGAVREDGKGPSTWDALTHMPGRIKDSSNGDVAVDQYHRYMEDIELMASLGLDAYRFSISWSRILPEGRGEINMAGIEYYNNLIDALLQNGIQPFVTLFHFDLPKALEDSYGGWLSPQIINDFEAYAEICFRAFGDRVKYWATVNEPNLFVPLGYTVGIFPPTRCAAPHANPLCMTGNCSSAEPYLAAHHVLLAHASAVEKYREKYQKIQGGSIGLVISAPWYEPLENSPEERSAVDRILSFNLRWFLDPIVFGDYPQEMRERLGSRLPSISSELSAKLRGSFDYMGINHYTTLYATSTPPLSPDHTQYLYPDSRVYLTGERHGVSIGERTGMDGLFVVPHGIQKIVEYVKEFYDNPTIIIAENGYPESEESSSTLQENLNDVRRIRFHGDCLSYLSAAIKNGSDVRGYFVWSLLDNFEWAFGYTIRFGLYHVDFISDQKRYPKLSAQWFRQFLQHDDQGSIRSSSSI
Source text: To express CBG protein in E. coli, the full- length coding region for the mature protein (i.e. excluding the signal peptide) was amplified using the 3' end clone (1A6) as the template with the N-terminal primer, NT1 (5' […] 3', Seq. I.D. No. 9) containing a 5' Nhe1 site, and a C-terminal primer, CT1 (5' […] 3', Seq. I.D. No. 10) containing a Xho 1 site. The resulting 1.5 kb DNA fragment was ligated into Bluescript II KS by T/A cloning as described above. The structure of the junctions of this construct was confirmed by sequencing and it was then inserted as a Nhe1/Xho1 fragment into expression vector pET21a (Novagen). Because, the Nhe1 site was used to introduce the cDNA into the pET vector, three non-CBG amino acids (Met, Ala, Ser) were added to the N-terminus of the expressed protein. To avoid the expression of the vector His-tag at the 3' end, the native stop codon of CBG was included. The expressed protein was thus identical in sequence to the mature CBG expressed in planta, except for the additional tripeptide at the N-terminus. Following transformation into E.coli strain DH5α and verification of the plasmid integrity by restriction digestion, it was introduced into the expression host BL21 (DE3).
To express CBG, the bacteria were grown to log phase (A600 =0.6-0.9) followed by an additional 2-3 h incubation at 29-37° C. in the presence or absence of 0.4-1 mM IPTG. The expressed CBG in the soluble protein fraction was purified by preparative Q-Sepharose chromatography followed by QMA-Memsep (Millipore) chromatography.
(§1) As noted above, the functional characteristic of the CBG enzyme is its ability to hydrolyze coniferin. This activity can be measured using the simple β-glucosidase assay described by Dharwardhana et al. (1995), conducted as follows: enzyme preparations (10-50 μl) and glucoside substrate (coniferin) (2 mM final concentration) in 0.2M MES, pH 5.5 buffer in a final volume of 150 μl are incubated at 30° C. for 30 min. The reaction is stopped by basification of the assay mixture with an equal volume of 0.5M CAPS buffer (Sigma Chemical Co., St. Louis, Mo., pH 10.5 and the activity measured by determining the absorbance of the released aglycone. The activity of the enzyme can be measured not only against coniferin, but also against related glucosides including 4-NPG, 2-NPG, MUG and the synthetic coniferin analog VRA-G. For quantitative calculations, the following analysis wavelengths and values (mM^-1 ×cm^-1) were used: coniferyl alcohol, 325 nm, ε=7.0; sinapyl alcohol, 315 nm, ε=11.2; 2-nitrophenol, 420 nm, ε=4.55, 4-nitrophenol, 400 nm, ε=19.3; 4-methyl umbelliferone, 360 nm, ε=18.25; VRA-G, 490 nm, ε=38.6; salicyl alcohol, 295 nm, ε=3.3.
Soluble proteins and insoluble proteins (inclusion bodies) prepared from induced and uninduced bacterial cells were assayed for coniferin hydrolysis activity by the method described above. […] The activity in this fraction could be increased up to 2-fold by increasing the IPTG concentration from 0.4 -1.0 mM, and by reducing the growing temperature from 37° C. to 29° C. […] This protein was purified by anion exchange chromatography using coniferin as the substrate for monitoring β-glucosidase activity. The purified enzyme often migrated as a doublet on nondenaturing gels. […] The latter would result in the synthesis of a polypeptide that is truncated at the N-terminus, as opposed to the full-length polypeptide initiated by ribosome binding to the standard ribosome binding site in the vector.

[2] = molecular target: T2, native coniferin beta-glucosidase (CBG) purified from pine xylem (Pinus contorta, UniProt Q9ZT64); assay: β-glucosidase assay, substrate specificity of coniferin β-glucosidase purified from pine xylem; assay type: biochemical; conditions: substrate hydrolysis relative to coniferin; 100% activity represents 14pKat; 2 mM glucoside substrate, 0.2M MES pH 5.5, 30° C., 30 min
T2 construct: from tissue; host or cells: Pinus contorta xylem
T2 sequence (Q9ZT64 24-513): T1 sequence (Q9ZT64 24-513)
Source text: Coniferin beta-glucosidase enzyme was purified from Pinus contorta xylem tissue as described by Dharmwardhana et al. (1995). In order to determine the N-terminal amino acid sequence of the purified enzymne, it was run on native PAGE gels, stained for activity on the synthetic coniferin substrate VRA-G and the staining band excised and subjected to SDS-PAGE. The protein was then transferred to an Immobilon membrane for N-terminal amino acid sequencing using an Applied Biosystems 470A gas phase sequencer (Edman degradation).
as §1

Row | Compound | Relative activity, E. coli CBG [1] | Relative activity, Native CBG [2]
1 | O=[N+]([O-])c1ccccc1O[C@@H]1O[C@H](CO)[C@@H](O)[C@H](O)[C@H]1O [2-nitrophenyl-β-glucoside, 2-nitrophenyl β-glucoside] | 50% | 51%
2 | Cc1cc(=O)oc2cc(O[C@@H]3O[C@H](CO)[C@@H](O)[C@H](O)[C@H]3O)ccc12 [4-methyl umbelliferyl-β-glucoside, 4-methylumbelliferyl β-glucoside] | 20% | 18%
3 | O=[N+]([O-])c1ccc(O[C@@H]2O[C@H](CO)[C@@H](O)[C@H](O)[C@H]2O)cc1 [4-nitrophenyl-β-glucoside, 4-nitrophenyl β-glucoside] | 35% | 30%
4 | COc1cc(/C=C/CO)ccc1O[C@@H]1O[C@H](CO)[C@@H](O)[C@H](O)[C@H]1O [coniferin] | 100% | 100%
5 | COc1cc(/C=C/CO)cc(OC)c1O[C@@H]1O[C@H](CO)[C@@H](O)[C@H](O)[C@H]1O [syringin] | 65% | 51%
